Key:
[1] = test system: BMPR2 protein in lungs of Bmpr2+/R899X and Bmpr2+/R584X mice; assay: In vivo BMPR2 protein in lung homogenates; conditions: 25 or 50 mg/kg i.p. once daily for 5 days, FIG. 6
Protocol: Having determined apparent in vivo safety of GJ103, this example next assessed if GJ103 administered i.p. improves BMPR2 proteins levels and activates BMP signaling in the pulmonary arteries of mice with a nonsense mutation.
To test this, Bmpr2^+/R899X and Bmpr2^+/R584X mice were administered vehicle, 25 mg/kg or 50 mg/kg GJ103 i.p. once daily for 5 days. Mice were then sacrificed and lung homogenates probed for BMPR2 protein levels (FIG. 6). Compared to WT (Bmpr2+/+) littermate controls, both Bmpr2^+/R899X and Bmpr2^+/R584X mice expressed ˜25-33% of WT BMPR2 protein levels.

Mice = assay: Chronic safety/toxicity, 4 weekly doses; format: in vivo; conditions: for ALB / ALP / ALT / AMY / BUN / CA+ / CRE / Cholesterol / GLU / NA+ / PHOS / TIM / TP / Triglyceride: 4 weekly injections, 1 week after last
Protocol: Both acute (a single dose of GJ103 administration) and chronic (4 weekly doses of GJ103 administration) in vivo toxicity studies were performed.
Mice (N=5 per group) were injected once a week for 4 weeks i.p. at doses of 25 or 50 mg/kg of GJ103, animals were sacrificed 1 week after the last injection, and the CBC and chemistries were repeated as outlined in the acute safety/toxicity study. Untreated or vehicle treated mice served as controls.

COc1cccc(-n2c(SCC(=O)O)nnc2-c2ccccn2)c1 [GJ103, 2-((4-(3-methoxyphenyl)-5-(pyridin-2-yl)-4H-1,2,4-triazol-3-yl)thio)acetic acid]
BMPR2 protein expression in lung homogenates [1]: significantly increased BMPR2 expression | ALB (Mice; GJ103 25 mg/kg i.p.): 4.2 ± 0.27 g/dL | ALP (Mice; GJ103 25 mg/kg i.p.): 69 ± 17.5 U/L | ALT (Mice; GJ103 25 mg/kg i.p.): 27 ± 4.38 U/L | AMY (Mice; GJ103 25 mg/kg i.p.): 605 ± 72.39 mg/dL | BUN (Mice; GJ103 25 mg/kg i.p.): 19 ± 3.05 mg/dL | CA+ (Mice; GJ103 25 mg/kg i.p.): 9.9 ± 0.4 mg/dL | CRE (Mice; GJ103 25 mg/kg i.p.): 0.3 ± 0.08 mg/dL | Cholesterol (Mice; GJ103 25 mg/kg i.p.): <100 mg/dL | GLU (Mice; GJ103 25 mg/kg i.p.): 173 ± 19.14 mg/dL | NA+ (Mice; GJ103 25 mg/kg i.p.): 149 ± 3.19 mM | PHOS (Mice; GJ103 25 mg/kg i.p.): 6.7 ± 0.99 mg/dL | TIM (Mice; GJ103 25 mg/kg i.p.): 0.2 ± 0.04 mg/dL | TP (Mice; GJ103 25 mg/kg i.p.): 5.7 ± 0.18 g/dL | Triglyceride (Mice; GJ103 25 mg/kg i.p.): 62 ± 10.6 mg/dL | ALB (Mice; GJ103 50 mg/kg i.p.): 4.1 ± 0.36 g/dL | ALP (Mice; GJ103 50 mg/kg i.p.): 71 ± 13 U/L | ALT (Mice; GJ103 50 mg/kg i.p.): 30 ± 12.5 U/L | AMY (Mice; GJ103 50 mg/kg i.p.): 742 ± 101.74 mg/dL | BUN (Mice; GJ103 50 mg/kg i.p.): 20 ± 3.40 mg/dL | CA+ (Mice; GJ103 50 mg/kg i.p.): 9.9 ± 0.54 mg/dL | CRE (Mice; GJ103 50 mg/kg i.p.): 0.3 ± 0.06 mg/dL | Cholesterol (Mice; GJ103 50 mg/kg i.p.): <100 mg/dL | GLU (Mice; GJ103 50 mg/kg i.p.): 176 ± 15.52 mg/dL | NA+ (Mice; GJ103 50 mg/kg i.p.): 149 ± 2.50 mM | PHOS (Mice; GJ103 50 mg/kg i.p.): 7.1 ± 1.95 mg/dL | TIM (Mice; GJ103 50 mg/kg i.p.): 0.2 ± 0.05 mg/dL | TP (Mice; GJ103 50 mg/kg i.p.): 5.6 ± 0.39 g/dL | Triglyceride (Mice; GJ103 50 mg/kg i.p.): 61 ± 13.38 mg/dL | LDH levels in lung, liver, kidney and heart tissue lysates (Mice; chronic study, vs untreated or vehicle controls): no statistically significant differences | changes in CBC and chemistries (Mice; once a week for 4 weeks i.p. 25 or 50 mg/kg, Table 2): no significant changes in any of the parameters determined
